pIC50: −log10 of the molar value.
What was measured:
[1] = Stability of compounds in simulated intestinal fluid (SIF); assay type: in vitro ADME; details: simulated intestinal fluid (3 mg/mL pancreatin), incubation time 6 hr, relative to t=0
In short: (§1)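 Compounds at […] were incubated 3 or 6 hr in USP simulated gastric fluid with 3 mg/mL pepsin or simulated intestinal fluid with 3 mg/mL pancreatin. Remaining compound was quantified by HPLC-UV or HPLC-MS peak area % and reported as percent of the t=0 level in the same medium.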

[2] = system: Uptake of Phosphorus from the Intestine; test: In vivo co-dosing in chow (urine P out / P consumed); details: Rattus norvegicus, feed or water, rats, compound in chow, read-out: Mean % inhibition Urine Pout/P consumed; for inhibition in vivo at 100 mg/kg/day: mean drug dose 100 mg/kg/day
Source text: Male, 7-week-old Sprague-Dawley rats (Charles-River laboratories international, Hollister, Calif.) were allowed to acclimate for a minimum of 3 days. The experiment was initiated by switching animals to a synthetic diet (0.6% phosphorus and 0.6% calcium, Harlan Teklad TD.84122) for four days. After this time, the animals were placed into metabolic cages for daily monitoring of food and water consumption, as well as urine and fecal collections. Test compounds were incorporated into the powdered diet listed above containing 3% chocolate flavoring (w/w, BioServ #7345) at 1.3 mg test compound per gram of diet to achieve an average daily nominal dose of 100 mg/kg/day. The actual dose received by each animal was later determined by measuring prepared diet consumption and body weight. Urine samples were collected in three daily periods from 24-48, 48-72, and 72-96 hours of drug dosing. Averaging these three 24 h periods allows for the more representative measurements of urination, fecal excretion, food consumption and water uptake for each animal. Phosphorus levels in the urine were determined by anion exchange chromatography using a Dionex ICS-3000 ion chromatography system. Urine samples were diluted 1:500 or 1:1000 and injected onto an IonPac AS18 analytical column (2×250 mm) using a potassium hydroxide eluent. Elution of urine phosphate ions was monitored via conductivity detector and reported as ppm relative to a standard ion solution containing phosphate. Daily urinary P output relative to the P consumed in the prepared diet for each animal was calculated. The percentage inhibition of phosphorus absorption was estimated by determining the reduction of this ratio compared to the control group (animals with no drug in chow). The differences between the means of control and treated groups were evaluated by t tests. In all experiments, one group was always included that had Renvela powder blended into their chow at 0.9% targeting a dose of 750 mg/kg.

[3] = Stability of compounds in simulated gastric fluid (SGF); assay type: in vitro ADME; details: simulated gastric fluid (3 mg/mL pepsin), incubation time 6 hr, relative to t=0
In short: as §1

human NaP2b (SLC34A2) = biological target: T1, human NaP2b (SLC34A2) (Homo sapiens, UniProt O95436); test: Inhibition of NaP2b-mediated Pi (33P) uptake in transfected HEK293 cells, human NaP2b; assay type: cell-based; details: read-out: pIC50 range for human NaP2b (converted)
T1 construct: host or cells: HEK293
T1 sequence (O95436 1-690): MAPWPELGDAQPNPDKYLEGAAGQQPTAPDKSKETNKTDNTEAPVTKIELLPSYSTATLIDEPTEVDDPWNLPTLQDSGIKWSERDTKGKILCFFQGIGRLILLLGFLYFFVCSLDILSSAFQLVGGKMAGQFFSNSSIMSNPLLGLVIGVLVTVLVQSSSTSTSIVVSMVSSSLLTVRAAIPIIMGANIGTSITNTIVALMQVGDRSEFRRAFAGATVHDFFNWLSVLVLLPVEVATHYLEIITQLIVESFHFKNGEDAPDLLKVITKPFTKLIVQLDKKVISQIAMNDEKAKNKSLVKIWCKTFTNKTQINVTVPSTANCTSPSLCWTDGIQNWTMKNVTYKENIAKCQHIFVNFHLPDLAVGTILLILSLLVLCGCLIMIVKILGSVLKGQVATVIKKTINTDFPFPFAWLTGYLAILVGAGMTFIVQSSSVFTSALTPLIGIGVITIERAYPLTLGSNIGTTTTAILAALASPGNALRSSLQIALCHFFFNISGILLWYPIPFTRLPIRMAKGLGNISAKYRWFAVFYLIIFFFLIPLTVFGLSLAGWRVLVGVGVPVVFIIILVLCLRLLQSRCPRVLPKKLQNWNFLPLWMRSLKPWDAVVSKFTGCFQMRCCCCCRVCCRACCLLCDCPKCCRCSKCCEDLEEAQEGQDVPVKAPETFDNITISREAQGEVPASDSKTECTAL
In short: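 HEK293 cells transiently transfected with human NaP2b (Thr inserted after residue 37, N39D), endogenous PiT transport pharmacologically silenced. Sodium or choline buffer, pH 7.4, with 100 uM KH2PO4, 33P orthophosphate and compound (0.1 nM–30 uM, twelve concentrations, duplicate). 3-30 min at room temperature, scintillation counting, pIC50 derived.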

rat NaP2b (SLC34A2) = biological target: T2, rat NaP2b (SLC34A2) (Rattus norvegicus, UniProt Q9JJ09); test: Inhibition of NaP2b-mediated Pi (33P) uptake in transfected HEK293 cells, rat NaP2b; assay type: cell-based; details: 33P Pi uptake, 0.1 mM phosphate, value given as pIC50 range
T2 construct: host or cells: HEK293
T2 sequence (Q9JJ09 1-695): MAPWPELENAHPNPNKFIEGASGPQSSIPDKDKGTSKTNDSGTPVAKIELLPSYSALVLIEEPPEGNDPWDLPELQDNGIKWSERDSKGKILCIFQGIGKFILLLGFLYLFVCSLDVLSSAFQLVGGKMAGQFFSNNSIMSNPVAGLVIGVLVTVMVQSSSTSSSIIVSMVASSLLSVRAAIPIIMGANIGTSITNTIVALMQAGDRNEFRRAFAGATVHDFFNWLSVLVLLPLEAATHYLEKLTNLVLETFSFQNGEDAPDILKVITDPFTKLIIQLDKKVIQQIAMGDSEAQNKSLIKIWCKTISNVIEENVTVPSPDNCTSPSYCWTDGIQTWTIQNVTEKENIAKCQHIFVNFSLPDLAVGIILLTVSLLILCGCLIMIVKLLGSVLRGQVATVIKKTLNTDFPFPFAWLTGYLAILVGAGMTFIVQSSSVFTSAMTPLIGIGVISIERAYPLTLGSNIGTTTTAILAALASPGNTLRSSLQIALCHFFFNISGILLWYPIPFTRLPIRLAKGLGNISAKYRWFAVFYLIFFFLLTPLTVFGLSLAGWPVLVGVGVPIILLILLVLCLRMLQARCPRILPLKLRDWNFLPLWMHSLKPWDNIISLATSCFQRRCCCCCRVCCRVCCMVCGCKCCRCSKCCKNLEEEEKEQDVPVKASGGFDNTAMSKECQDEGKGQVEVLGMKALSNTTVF
In short: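 HEK293 cells were transiently transfected with NaP2b cDNA using Lipofectamine and grown near confluence. Compounds were tested at twelve concentrations from 0.1 nM to 30 uM in duplicate, and 33P-phosphate uptake was counted by scintillation after lysis. Results are expressed as pIC50.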

[4] = Fecal recovery of orally administered compounds; assay type: in vivo, Sprague-Dawley rats; details: Structure (I) examples, Table 16; rat, oral gavage, feces collected until 48 hr after dosing
Source text: (§2) The animals were kept in metabolic cages and feces were collected from the time of dosing until 48 hr after dosing. Upon collection, feces were dried by lyophilization and ground to a visually homogenous powder. Duplicate samples of ground feces from each individual animal were weighed out and extracted using organic solvent. […] Extraction conditions were not optimized for individual compounds, and thus may represent a minimal level of recovery.
as §2, with “collection, feces was dried by” for “collection, feces were dried by”
as §2, with “collection, feces was dried by” for “collection, feces were dried by”
The animals were kept in metabolic cages and feces were collected from the time of dosing until 48 hr after dosing. Upon collection, feces was dried by lyophilization and ground to a visually homogenous powder. Duplicate samples of ground feces from each individual animal were weighed out and extracted using organic solvent.

[5] = Determination of compound Cmax and AUC after oral gavage (plasma LC-MS/MS); assay type: in vivo, Sprague-Dawley rats; details: Sprague-Dawley, rat, plasma, po, Structure (I) examples
In short: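 Sprague-Dawley rats dosed by oral gavage at nominal 2.5 or 10 mg/kg; blood drawn at 0.5, 1, 2 and 4 h into K2EDTA. Plasma protein-precipitated with acetonitrile plus internal standard and analysed by LC-MS/MS against a plasma standard curve to derive Cmax and AUC.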

[6] = Table 15, actual oral dose 3-15 mg/kg, plasma 0.5-4 h

Compound | % remaining, SIF [1] | % remaining, SGF [3] [%] | IC50 (human NaP2b (SLC34A2)) [nM] | pIC50 (rat NaP2b (SLC34A2)) | % recovered in feces [4] | AUC [5, 6] [ng·h/mL] | Cmax [5, 6] [ng/mL] | AUC ([5]; Table 15, actual oral dose 15-40 mg/kg, plasma 0.5-4 h) [ng·h/mL] | Cmax ([5]; Table 15, plasma 0.5-4 h) [ng/mL] | inhibition in vivo at 100 mg/kg/day [2] [%] | inhibition in vivo at 90 mg/kg/day ([2]; mean drug dose 90 mg/kg/day) [%]
O=C(NCc1cccc(C(F)(F)F)c1)c1ccnc(-c2cc(N3CCCCC3)ccc2NC(=O)c2cccc(CSCCCO)c2)c1 [Example 8.3] |  |  |  | 5.10 to 6.00 | <20% |  |  |  |  |  | 
CCN(CC)c1ccc(NC(=O)c2cccc(COCCOCCOCCOCCOCCOCCOCCOCCOC)c2)c(-c2cc(C(=O)NCc3cccc(C(F)(F)F)c3)ccn2)c1 [Example 173, 2-(2-(3-2,5,8,11,14,17,20,23,26-nonaoxaheptacosylbenzamido)-5-(diethylamino)phenyl)-N-(3-(trifluoromethyl)benzyl)isonicotinamide] | >80% | >80 | < 1000 | > 6.00 |  |  |  |  |  |  | ≤ 10
CCN(CC)c1ccc(NC(=O)c2cccc(C(=O)N(C)CCN3CCC[C@H]3C(=O)NCCOCCOCCOCCOCCOCCOCCOCCOC)c2)c(-c2cc(C(=O)NCc3cccc(C(F)(F)F)c3)ccn2)c1 [Example 203, (S)—N^1-(2-(2-(2,5,8,11,14,17,20,23-octaoxapentacosan-25-ylcarbamoyl)pyrrolidin-1-yl)ethyl)-N^3-(4-(diethylamino)-2-(4-((3-(trifluoromethyl)benzyl)carbamoyl)pyridin-2-yl)phenyl)-N^1-methylisophthalamide] | >80% | >80 | 1000 to 7940 | 5.10 to 6.00 |  |  |  |  |  | ≤ 10 | 
CCN(CC)c1ccc(NC(=O)c2cccc(CCCOCCOCCOCCOCCNC(=O)c3cccc(CCCOCCOCCOCCOCCOCCOCCOCCOCCOC)c3)c2)c(-c2cc(C(=O)NCc3cccc(C(F)(F)F)c3)ccn2)c1 [Example 271, 2-(2-(3-(1-(3-(2,5,8,11,14,17,20,23,26-nonaoxanonacosan-29-yl)phenyl)-1-oxo-5,8,11,14-tetraoxa-2-azaheptadecan-17-yl)benzamido)-5-(diethylamino)phenyl)-N-(3-(trifluoromethyl)benzyl)isonicotinamide] |  |  |  | 5.10 to 6.00 | 20-80% |  |  | > 50 | < 30 |  | 

Further lines, with some results ahead:

% remaining, SIF [1] | % remaining, SGF [3] [%] | IC50 (human NaP2b (SLC34A2)) [nM] | pIC50 (rat NaP2b (SLC34A2)) | % recovered in feces [4] | AUC [5, 6] [ng·h/mL] | Cmax [5, 6] [ng/mL] | AUC ([5]; Table 15, actual oral dose 15-40 mg/kg, plasma 0.5-4 h) [ng·h/mL] | Cmax ([5]; Table 15, plasma 0.5-4 h) [ng/mL] | Compound | inhibition in vivo at 100 mg/kg/day [2] [%] | inhibition in vivo at 90 mg/kg/day ([2]; mean drug dose 90 mg/kg/day) [%]
60-80% | >80 | 1000 to 7940 | 5.10 to 6.00 |  |  |  |  |  | CCN(CC)c1ccc(NC(=O)c2cccc(CSCCOCCOCCOCCOCCC(=O)NC(CO)(CO)CO)c2)c(-c2cc(C(=O)NCc3cccc(C(F)(F)F)c3)ccn2)c1 [Example 163, 2-(5-(diethylamino)-2-(3-(20-hydroxy-19,19-bis(hydroxymethyl)-17-oxo-5,8,11,14-tetraoxa-2-thia-18-azaicosyl)benzamido)phenyl)-N-(3-(trifluoromethyl)benzyl)isonicotinamide] | ≤ 10 | 
>80% | >80 |  | 5.10 to 6.00 |  | < 10 | < 10 |  |  | CCN(CC)c1ccc(NC(=O)c2cccc(C(=O)N(C)CCN3CCN(CCOCCOCCOCCOCCOCCOCCOC)C(=O)C3)c2)c(-c2cc(C(=O)N[C@H]3CCCc4ccccc43)ccn2)c1 [Example 327, (S)—N1-(2-(4-(2,5,8,11,14,17,20-heptaoxadocosan-22-yl)-3-oxopiperazin-1-yl)ethyl)-N3-(4-(diethylamino)-2-(4-(1,2,3,4-tetrahydronaphthalen-1-ylcarbamoyl)pyridin-2-yl)phenyl)-N1-methylisophthalamide] | 10 to 30 | 
60-80% | >80 | < 1000 | 5.10 to 6.00 |  |  |  |  |  | CCN(CC)c1ccc(NC(=O)c2cccc(CSCCOCCOCCOCCOCCC(=O)N(CCO)CCO)c2)c(-c2cc(C(=O)NCc3cccc(C(F)(F)F)c3)ccn2)c1 [Example 164, 2-(5-(diethylamino)-2-(3-(20-hydroxy-18-(2-hydroxyethyl)-17-oxo-5,8,11,14-tetraoxa-2-thia-18-azaicosyl)benzamido)phenyl)-N-(3-(trifluoromethyl)benzyl)isonicotinamide] | ≤ 10 | 

Source: patent US20140023611A1 (priority 2010, published 2014)
